As usually defined, the IC50 is the concentration that gives 50% inhibition. High values mean lower potency, low ones higher potency.

The structures appear in SMILES notation.

T1 sequence (P42336 whole entry): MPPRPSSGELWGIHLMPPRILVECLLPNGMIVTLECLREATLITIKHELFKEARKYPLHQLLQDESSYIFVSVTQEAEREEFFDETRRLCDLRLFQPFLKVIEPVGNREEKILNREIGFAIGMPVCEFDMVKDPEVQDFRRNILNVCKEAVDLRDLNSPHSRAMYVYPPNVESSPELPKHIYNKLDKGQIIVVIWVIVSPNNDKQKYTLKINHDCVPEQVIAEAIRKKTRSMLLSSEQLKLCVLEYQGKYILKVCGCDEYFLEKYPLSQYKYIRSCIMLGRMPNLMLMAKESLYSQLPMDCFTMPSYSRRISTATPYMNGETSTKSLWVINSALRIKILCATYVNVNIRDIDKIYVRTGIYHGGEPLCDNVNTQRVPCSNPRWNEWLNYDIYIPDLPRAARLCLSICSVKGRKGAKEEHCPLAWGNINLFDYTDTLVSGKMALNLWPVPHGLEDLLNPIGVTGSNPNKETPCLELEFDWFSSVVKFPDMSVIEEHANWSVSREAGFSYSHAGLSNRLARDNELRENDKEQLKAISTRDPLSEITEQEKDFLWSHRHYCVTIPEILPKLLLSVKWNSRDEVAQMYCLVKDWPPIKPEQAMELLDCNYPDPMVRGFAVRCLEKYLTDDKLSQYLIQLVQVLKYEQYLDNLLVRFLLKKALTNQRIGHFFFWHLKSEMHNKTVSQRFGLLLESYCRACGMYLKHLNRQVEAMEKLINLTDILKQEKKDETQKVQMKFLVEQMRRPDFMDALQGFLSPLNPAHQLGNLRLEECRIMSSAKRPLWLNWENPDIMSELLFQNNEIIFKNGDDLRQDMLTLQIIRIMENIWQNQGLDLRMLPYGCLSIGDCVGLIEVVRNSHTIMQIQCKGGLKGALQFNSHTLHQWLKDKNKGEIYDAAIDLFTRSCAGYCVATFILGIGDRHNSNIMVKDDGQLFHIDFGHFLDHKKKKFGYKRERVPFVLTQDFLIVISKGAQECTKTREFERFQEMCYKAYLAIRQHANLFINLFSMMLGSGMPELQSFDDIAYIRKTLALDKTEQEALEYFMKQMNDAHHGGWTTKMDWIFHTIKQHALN
T1 sequence (P27986 whole entry partner): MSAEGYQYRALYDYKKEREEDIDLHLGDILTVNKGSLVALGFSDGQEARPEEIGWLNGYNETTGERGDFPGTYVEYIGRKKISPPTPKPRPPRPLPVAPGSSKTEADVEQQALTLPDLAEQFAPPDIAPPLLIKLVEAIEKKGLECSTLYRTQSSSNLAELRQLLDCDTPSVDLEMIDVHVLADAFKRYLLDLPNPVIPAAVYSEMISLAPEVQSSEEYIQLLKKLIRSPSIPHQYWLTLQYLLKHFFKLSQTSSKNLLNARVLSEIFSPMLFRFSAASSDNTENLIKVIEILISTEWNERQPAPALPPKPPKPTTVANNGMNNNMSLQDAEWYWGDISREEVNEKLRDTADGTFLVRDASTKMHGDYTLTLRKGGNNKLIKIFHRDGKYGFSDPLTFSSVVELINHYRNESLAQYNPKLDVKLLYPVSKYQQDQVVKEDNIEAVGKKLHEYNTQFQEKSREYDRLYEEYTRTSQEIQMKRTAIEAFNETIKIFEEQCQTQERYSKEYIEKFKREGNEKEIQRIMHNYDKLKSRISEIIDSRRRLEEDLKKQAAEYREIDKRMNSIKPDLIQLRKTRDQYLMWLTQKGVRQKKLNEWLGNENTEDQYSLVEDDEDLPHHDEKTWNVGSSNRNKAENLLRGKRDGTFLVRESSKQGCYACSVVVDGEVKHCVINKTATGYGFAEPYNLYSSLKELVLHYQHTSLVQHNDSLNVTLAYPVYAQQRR

The assay concerns the target T1, PI3Kalpha (Homo sapiens, UniProt P42336).
T1 construct: His (N); host or cells: SF9 insect cells (baculovirus)
Kind of assay: Human PI3Kα enzyme assay (HTRF). Format: biochemical. To be noted: ATP 25 uM, di-C8 PI(4,5)P2, 30 minutes at room temperature, values given only as potency bins. From the text: The catalytic subunits of PI3Ks are cloned into either pDEST8 (p110 alpha) or pDEST10 (p110beta, p110delta, and p110gamma) as N-terminal His tagged fusion proteins using the Gateway system (Invitrogen, catalog#11804-010 for pDEST8 and 11806-015 for pDEST10). The sequences are verified before recombinant protein expression using the Baculovirus Expression System with Gateway® Technology. The accession numbers for the subunits are as follows:
The regulatory subunits of PI3Ks are cloned into pDEST8 as un-tagged protein using the Gateway system (Catalog#11804-010). The sequences are verified before recombinant protein expression using the Baculovirus Expression System with Gateway® Technology. The accession numbers for the subunits are as following: p85 alpha (GB: BC030815) p101 (GB: AB028925)
For expression of the p110 complexes, the p85 (MOI of 4) is co-infected with p110 alpha, beta, and delta respectively (1 MOI) in SF9 cells and harvested at 60 hours post co-infection. P110 gamma was infected at 1 MOI and harvested at 60 hours post infection.
For purification, PI3Ks are purified by Ni-NTA Agarose (Qiagen #30250) followed by Mono Q 10/100 GL (Ge Healthcare #17-5167-01). VPS34 is purified by Glutathione Sepharose 4 Fast Flow (GE Healthcare #17-5132-03) followed by HiTrap Q (GE Healthcare #17-1153-01).
1) Human PI3Kα Enzyme Assay Method
0.5 uL compounds in DMSO are added to wells of a 384 well microtitre plate (Corning 3575). At room temperature: 10 ul PI3K reaction buffer (50 mM Hepes, 5 mM DTT, 150 mM NaCl, 10 mM beta-glycerophosphate, 10 mM MgCl2, 0.25 mM sodium cholate and 0.001% CHAPS, pH 7.00) containing ATP (25 uM, Promega) is added followed immediately by 10 ul PI3K reaction buffer containing di-C8 PI(4,5)P2 (3.5 uM, CellSignals) and PI3Kalpha (0.4875 nM, Millennium Protein Sciences Group) and the mixture is incubated with shaking at room temperature for 30 minutes. Then 5 ul PI3K stop mix (50 mM Hepes, 5 mM DTT, 150 mM NaCl, 0.01% Tween-20, 15 mM EDTA and 25 nM biotin-PI(3,4,5)P3 (Echelon) is added to quench the reaction followed immediately by addition of 5 ul HTRF detection mix (50 mM Hepes, 5 mM DTT, 150 mM NaCl, 0.01% Tween-20, 40 mM KF, 10 nM GST:GRP-1 PH domain (Millennium Protein Sciences Group), 15 nM Streptavidin-XL (CisBio) and 0.375 nM anti-GST Eu++ antibody (CisBio) at pH 7.00). The plates are then incubated for 1 hour at room temperature with shaking and then read on a BMG PheraStar Plus reader.
(Time-resolved FRET reads energy transfer from a long-lived donor to a nearby acceptor.)
Molecule `N#Cc1c(-c2ccnc(NC(=O)c3ccccc3)c2)sc(-c2nnc[nH]2)c1-c1ccc(Cl)cc1Cl` [Compound 1] gave an IC50 of more than 1000 nM. The value for `N#Cc1c(-c2ccnc(N)c2)sc(-c2cnc[nH]2)c1-c1ccc(Cl)cc1Cl` [Compound 80, 2-(2-aminopyridin-4-yl)-4-(2,4-dichlorophenyl)-5-(1H-imidazol-5-yl)thiophene-3-carbonitrile] was less than 100 nM.

For `CS(=O)(=O)Nc1cc(-c2sc(-c3nnc[nH]3)c(-c3ccc(Cl)cc3Cl)c2C#N)ccn1` [Compound 4], the IC50 was more than 1000 nM.

Molecule `COc1cc(-c2sc(-c3nnc[nH]3)c(-c3ccc(Cl)cc3Cl)c2C#N)ccn1` [Compound 24] had an IC50 of more than 1000 nM.

`N#Cc1c(-c2ccnc(N)c2)sc(C(N)=O)c1-c1ccc(Cl)cc1Cl` [Compound 60] came in with an IC50 of 100 to 1000 nM.

For the molecule `CNC(=O)c1cc(-c2sc(-c3nnc[nH]3)c(-c3ccc(Cl)cc3Cl)c2C#N)ccn1` [Compound 44], the IC50 is more than 1000 nM.

As to `Cc1cnc(N)nc1-c1sc(-c2nnc[nH]2)c(-c2ccc(Cl)cc2Cl)c1C#N` [Compound 8], the IC50 was more than 1000 nM.

`COc1ccc(CNc2cc(-c3sc(-c4nnc[nH]4)c(-c4ccc(Cl)cc4Cl)c3C#N)ccn2)c(OC)c1` [Compound 33] displayed an IC50 of more than 1000 nM. With `CNc1nccc(-c2sc(-c3ncc[nH]3)c(-c3ccc(Cl)cc3Cl)c2C#N)n1` [Compound 16], the IC50 is less than 100 nM.

The molecule `CNc1cc(-c2cc(-c3ccc(Cl)cc3Cl)c(-c3ncc[nH]3)s2)ncn1` [Compound 84] displayed an IC50 of more than 1000 nM.

(Values after patent US8796314B2, “Heteroaryls and uses thereof” (Millennium Pharmaceuticals, Inc., priority 2009, dated 2014).)
